How the values were obtained:
A549-ACE2 [1] = test: drug-induced phospholipidosis relative to tamoxifen; higher = more phospholipidosis
[2] = tested on: A549-ACE2 infected with SARS-CoV-2; test: SARS-CoV-2 infection rate relative to DMSO; higher = more infection; settings: 24 h
[3] = tested on: A549-ACE2 infected with SARS-CoV-2; test: cell count relative to DMSO; higher = less toxic; settings: 24 h
A549-ACE2 [4] = test: phospholipidosis EC50; higher = less potent phospholipidosis inducer
[5] = tested on: A549-ACE2 infected with SARS-CoV-2; test: morphology score (similarity to uninfected cells); higher = more like uninfected cells; settings: 24 h
HepG2 [6] = test: cell viability relative to DMSO; higher = less toxic; settings: 72 h
Calu-3 [7] = test: as above; settings: 72 h
Vero E6 [8] = test: as above; settings: 72 h
U2OS [9] = test: as above; settings: 72 h
Caco-2 [10] = test: as above; settings: 72 h
Calu-3 [11] = test: relative viability EC50 (midpoint between 100% and the lowest measured viability); higher = less toxic; settings: 72 h
Vero E6 [12] = test: as above; settings: 72 h
U2OS [13] = test: as above; settings: 72 h
Caco-2 [14] = test: as above; settings: 72 h
HepG2 [15] = test: drug sensitivity score (DSS) for viability; higher = more toxic; extreme values may be limits of the assay; settings: 72 h
Calu-3 [16] = test: as above; settings: 72 h
Vero E6 [17] = test: as above; settings: 72 h
U2OS [18] = test: as above; settings: 72 h
Caco-2 [19] = test: as above; settings: 72 h
HepG2 [20] = test: relative viability EC50 (midpoint between 100% and the lowest measured viability); higher = less toxic; settings: 72 h

COc1ccc(/C=C/C(=O)/C=C(O)/C=C/c2ccc(OC)c(OC)c2)cc1OC [ASC-J9]
drug-induced phospholipidosis [%], A549-ACE2 [1]
Settings | 0.3 µM | 0.833333 µM | 3.33333 µM | 6.66667 µM | 10 µM | 30 µM
24 h | 0.46 | -1.23 | 4.99 | 24.2 | 40.1 | 139
48 h | 1.84 | -1.1 | 1.58 | 8.23 | 13.3 | 45.5
72 h | 4.19 | -0.9 | 1.28 | 7.61 | 9.79 | 37.4

Settings | SARS-CoV-2 infection rate [%] | cell count [%] | cell viability [%] | morphology score | phospholipidosis EC50 [µM]
A549-ACE2 [4], 24 h | – | – | – | – | 20
Caco-2 [10], 1 nM | – | – | 90.7 | – | –
Caco-2 [10], 10 nM | – | – | 92.8 | – | –
Caco-2 [10], 100 nM | – | – | 92.9 | – | –
Caco-2 [10], 1000 nM | – | – | 100 | – | –
Caco-2 [10], 10000 nM | – | – | 45.2 | – | –
Calu-3 [7], 1 nM | – | – | 96.5 | – | –
Calu-3 [7], 10 nM | – | – | 94.9 | – | –
Calu-3 [7], 100 nM | – | – | 110 | – | –
Calu-3 [7], 1000 nM | – | – | 108 | – | –
Calu-3 [7], 10000 nM | – | – | 81.9 | – | –
HepG2 [6], 1 nM | – | – | 118 | – | –
HepG2 [6], 10 nM | – | – | 106 | – | –
HepG2 [6], 100 nM | – | – | 111 | – | –
HepG2 [6], 1000 nM | – | – | 95.4 | – | –
HepG2 [6], 10000 nM | – | – | 55.8 | – | –
U2OS [9], 1 nM | – | – | 96.1 | – | –
U2OS [9], 10 nM | – | – | 97.5 | – | –
U2OS [9], 100 nM | – | – | 95.3 | – | –
U2OS [9], 1000 nM | – | – | 98.1 | – | –
U2OS [9], 10000 nM | – | – | 26.5 | – | –
Vero E6 [8], 1 nM | – | – | 99.2 | – | –
Vero E6 [8], 10 nM | – | – | 93.9 | – | –
Vero E6 [8], 100 nM | – | – | 103 | – | –
Vero E6 [8], 1000 nM | – | – | 101 | – | –
Vero E6 [8], 10000 nM | – | – | 103 | – | –
[2], 0.3 µM | 98 | – | – | – | –
[2], 3 µM | 97 | – | – | – | –
[2], 10 µM | 87 | – | – | – | –
[2], 30 µM | 25 | – | – | – | –
[3], 0.3 µM | – | 100 | – | – | –
[3], 3 µM | – | 101 | – | – | –
[3], 10 µM | – | 98 | – | – | –
[3], 30 µM | – | 70 | – | – | –
[5], 0.3 µM | – | – | – | 0.01 | –
[5], 3 µM | – | – | – | -0.06 | –
[5], 10 µM | – | – | – | 0.39 | –
[5], 30 µM | – | – | – | 0.56 | –

Settings | drug sensitivity score | relative viability EC50 [µM]
Caco-2 [14] | – | 3.19
Caco-2 [19] | 2.9 | –
Calu-3 [11] | – | > 10
Calu-3 [16] | 0.3 | –
HepG2 [15] | 3 | –
U2OS [13] | – | 2.98
U2OS [18] | 4.3 | –
Vero E6 [12] | – | > 10
Vero E6 [17] | 0 | –

Clc1ccccc1CNC[C@H]1CC[C@H](CNCc2ccccc2Cl)CC1 [AY-9944]
drug-induced phospholipidosis [%], A549-ACE2 [1]
Settings | 0.3 µM | 0.833333 µM | 3.33333 µM | 6.66667 µM | 10 µM | 30 µM
24 h | 20.6 | 37.8 | 77.7 | 88.2 | 96.4 | 121
48 h | 14.1 | 38.1 | 78.4 | 112 | 116 | 148
72 h | 17.5 | 29.9 | 79.3 | 115 | 128 | 157

Settings | SARS-CoV-2 infection rate [%] | cell count [%] | cell viability [%] | morphology score | phospholipidosis EC50 [µM]
A549-ACE2 [4], 24 h | – | – | – | – | 5.85
A549-ACE2 [4], 48 h | – | – | – | – | 5.4
A549-ACE2 [4], 72 h | – | – | – | – | 4.53
Caco-2 [10], 1 nM | – | – | 99.5 | – | –
Caco-2 [10], 10 nM | – | – | 108 | – | –
Caco-2 [10], 100 nM | – | – | 99.7 | – | –
Caco-2 [10], 1000 nM | – | – | 95.1 | – | –
Caco-2 [10], 10000 nM | – | – | 83.7 | – | –
Calu-3 [7], 1 nM | – | – | 97.7 | – | –
Calu-3 [7], 10 nM | – | – | 104 | – | –
Calu-3 [7], 100 nM | – | – | 106 | – | –
Calu-3 [7], 1000 nM | – | – | 108 | – | –
Calu-3 [7], 10000 nM | – | – | 7.3 | – | –
HepG2 [6], 1 nM | – | – | 104 | – | –
HepG2 [6], 10 nM | – | – | 96 | – | –
HepG2 [6], 100 nM | – | – | 110 | – | –
HepG2 [6], 1000 nM | – | – | 98.1 | – | –
HepG2 [6], 10000 nM | – | – | 59.2 | – | –
U2OS [9], 1 nM | – | – | 97.4 | – | –
U2OS [9], 10 nM | – | – | 102 | – | –
U2OS [9], 100 nM | – | – | 103 | – | –
U2OS [9], 1000 nM | – | – | 107 | – | –
U2OS [9], 10000 nM | – | – | 92.8 | – | –
Vero E6 [8], 1 nM | – | – | 102 | – | –
Vero E6 [8], 10 nM | – | – | 104 | – | –
Vero E6 [8], 100 nM | – | – | 105 | – | –
Vero E6 [8], 1000 nM | – | – | 94.5 | – | –
Vero E6 [8], 10000 nM | – | – | 90 | – | –
[2], 0.3 µM | 86 | – | – | – | –
[2], 3 µM | 39 | – | – | – | –
[2], 10 µM | 17 | – | – | – | –
[2], 30 µM | 34 | – | – | – | –
[3], 0.3 µM | – | 104 | – | – | –
[3], 3 µM | – | 123 | – | – | –
[3], 10 µM | – | 126 | – | – | –
[3], 30 µM | – | 113 | – | – | –
[5], 0.3 µM | – | – | – | 0.42 | –
[5], 3 µM | – | – | – | 0.76 | –
[5], 10 µM | – | – | – | 0.56 | –
[5], 30 µM | – | – | – | 0.08 | –

Settings | drug sensitivity score | relative viability EC50 [µM]
Caco-2 [14] | – | > 10
Caco-2 [19] | 0.8 | –
Calu-3 [11] | – | 3.6
Calu-3 [16] | 4.6 | –
HepG2 [15] | 2.3 | –
U2OS [13] | – | > 10
U2OS [18] | 0 | –
Vero E6 [12] | – | > 10
Vero E6 [17] | 0 | –

NC(=O)c1cnc(N[C@@H]2CCCC[C@@H]2N)nc1Nc1cccc(-n2nccn2)c1
drug-induced phospholipidosis [%], A549-ACE2 [1]
Settings | 0.3 µM | 0.833333 µM | 3.33333 µM | 6.66667 µM | 10 µM
24 h | 1.48 | 0.83 | 27.1 | 71.6 | 99.3
48 h | 4.57 | 2.08 | 16.9 | 73.9 | –
72 h | 3.49 | -1.55 | 12.3 | 69.8 | –

Settings | SARS-CoV-2 infection rate [%] | cell count [%] | cell viability [%] | morphology score | phospholipidosis EC50 [µM]
A549-ACE2 [4], 24 h | – | – | – | – | 6.68
A549-ACE2 [4], 48 h | – | – | – | – | 4.26
Caco-2 [10], 1 nM | – | – | 94.6 | – | –
Caco-2 [10], 10 nM | – | – | 92.9 | – | –
Caco-2 [10], 100 nM | – | – | 91.5 | – | –
Caco-2 [10], 1000 nM | – | – | 93 | – | –
Caco-2 [10], 10000 nM | – | – | 44.7 | – | –
Calu-3 [7], 1 nM | – | – | 97.3 | – | –
Calu-3 [7], 10 nM | – | – | 94.5 | – | –
Calu-3 [7], 100 nM | – | – | 101 | – | –
Calu-3 [7], 1000 nM | – | – | 69.6 | – | –
Calu-3 [7], 10000 nM | – | – | 45.2 | – | –
HepG2 [6], 1 nM | – | – | 101 | – | –
HepG2 [6], 10 nM | – | – | 101 | – | –
HepG2 [6], 100 nM | – | – | 99.1 | – | –
HepG2 [6], 1000 nM | – | – | 95 | – | –
HepG2 [6], 10000 nM | – | – | 31.7 | – | –
U2OS [9], 1 nM | – | – | 99.7 | – | –
U2OS [9], 10 nM | – | – | 96.8 | – | –
U2OS [9], 100 nM | – | – | 106 | – | –
U2OS [9], 1000 nM | – | – | 93.9 | – | –
U2OS [9], 10000 nM | – | – | 46.1 | – | –
Vero E6 [8], 1 nM | – | – | 98.9 | – | –
Vero E6 [8], 10 nM | – | – | 100 | – | –
Vero E6 [8], 100 nM | – | – | 91.1 | – | –
Vero E6 [8], 1000 nM | – | – | 98.4 | – | –
Vero E6 [8], 10000 nM | – | – | 81.6 | – | –
[2], 0.3 µM | 104 | – | – | – | –
[2], 3 µM | 32 | – | – | – | –
[2], 10 µM | 72 | – | – | – | –
[2], 30 µM | 121 | – | – | – | –
[3], 0.3 µM | – | 94 | – | – | –
[3], 3 µM | – | 101 | – | – | –
[3], 10 µM | – | 50 | – | – | –
[3], 30 µM | – | 1 | – | – | –
[5], 0.3 µM | – | – | – | -0.18 | –
[5], 3 µM | – | – | – | 0.74 | –
[5], 10 µM | – | – | – | 0.43 | –
[5], 30 µM | – | – | – | 0.3 | –

Settings | drug sensitivity score | relative viability EC50 [µM]
Caco-2 [14] | – | 2.13
Caco-2 [19] | 4.2 | –
Calu-3 [11] | – | 0.917
Calu-3 [16] | 6.7 | –
HepG2 [15] | 4.5 | –
HepG2 [20] | – | 2.57
U2OS [13] | – | 2.24
U2OS [18] | 3.9 | –
Vero E6 [12] | – | > 10
Vero E6 [17] | 0.7 | –

Source: the supplement of paper PMC13380429
